# Measurements published in US10428045B2, “Benzazepine compounds, conjugates, and uses thereof” (Silverback Therapeutics, Inc., priority 2017, dated 2019).
# Counter-ions that a name gives are not always drawn.
# Tested on: Human peripheral blood mononuclear cells (PBMC)
# Test: PBMC screening assay, TNF-α in supernatant
# Format: cell-based
# Settings: TNF-α in supernatant of human PBMC, 24 hours, ELISA or HTRF
# Procedure: Human peripheral blood mononuclear cells (PBMC) were obtained from BenTek, frozen at 25×10^6 cell/mL in 10% DMSO (Sigma) prepared in fetal bovine serum (Gibco) and stored in liquid nitrogen. For culture PBMC were thawed quickly in a 37° C. water bath and diluted into pre-warmed RPMI 1640 (Lonza) supplemented with 10% fetal bovine serum, 2 mM glutamine, 50 μg/mL penicillin, 50 U/mL streptomycin (all from Gibco) and centrifuged for 5 minutes at 500×g. PBMC were suspended into the growth media described above and cultured at a concentration of 1×10^6 cells per mL at 37° C. in a 5% CO2 incubator.
# PBMC were thawed, suspended at a concentration of 1×10^6 cell/mL in growth media and 200 μL was aliquoted into each well of a 96-well plate for a total of 0.2×10^6 cells per well. PBMC were incubated for 16-18 hours at 37° C. in a 5% CO2 humidified incubator. The following day PBMC plates were centrifuged at 500×g for 5 minutes and the growth media was removed. 150 μL of twelve concentrations ranging from 1000 to 0.000238 nM of small molecules prepared in growth media were added to PBMC in duplicate and incubated for 24 hours at 37° C. in a 5% CO2 incubator. Prior to supernatant harvest, cells were spun at 500×g for 5 minutes to remove cell debris. TNF-α activity was assessed in the supernatant by ELISA (eBioscience) or HTRF (CisBio) per the manufacturer's instructions. Optical density at 450 nm and 570 nm (ELISA) or luminescence (HTRF) was analyzed using an Envision (Perkin Elmer) plate reader, as shown in Table 5.
row,Compound,EC50 [nM]
1,"CCCN(CCC)C(=O)C1=Cc2ccc(C(=O)Nc3ccc4c(c3)NCCC4)cc2N=C(N)C1 [Compound 1.1, 2-amino-N^4,N^4-dipropyl-N^8-(1,2,3,4-tetrahydroquinolin-7-yl)-3H-benzo[b]azepine-4,8-dicarboxamide]",< 500
2,"CCCN(CCC)C(=O)C1=Cc2ccc(C(=O)Nc3cccc(C(C)=O)c3)cc2N=C(N)C1 [Compound 1.2, N^8-(3-acetylphenyl)-2-amino-N^4,N^4-dipropyl-3H-benzo[b]azepine-4,8-dicarboxamide]",< 500
3,"CCCN(CCC)C(=O)C1=Cc2ccc(C(=O)NCc3cccnc3)cc2N=C(N)C1 [Compound 1.3, 2-amino-N^4,N^4-dipropyl-N^8-(pyridin-3-ylmethyl)-3H-benzo[b]azepine-4,8-dicarboxamide HCl salt]",< 500
4,"CCCN(CCC)C(=O)C1=Cc2ccc(C(=O)Nc3ccc4c(c3)C(=O)CCC4)cc2N=C(N)C1 [Compound 1.4, 2-amino-N^8-(8-oxo-5,6,7,8-tetrahydronaphthalen-2-yl)-N^4,N^4-dipropyl-3H-benzo[b]azepine-4,8-dicarboxamide trifluoroacetate salt]",< 500
5,"CCCN(CCC)C(=O)C1=Cc2ccc(C(=O)Nc3ccc4c(c3)CCCC4=O)cc2N=C(N)C1 [Compound 1.5, 2-amino-N^8-(5-oxo-5,6,7,8-tetrahydronaphthalen-2-yl)-N^4,N^4-dipropyl-3H-benzo[b]azepine-4,8-dicarboxamide trifluoroacetate salt]",< 500
6,"CCCN(CCC)C(=O)C1=Cc2ccc(C(=O)Nc3ccc4c(c3)C(O)CCC4)cc2N=C(N)C1 (stereo not shown) [Compound 1.7, 2-amino-N^8-(8-hydroxy-5,6,7,8-tetrahydronaphthalen-2-yl)-N4,N4-dipropyl-3H-benzo[b]azepine-4,8-dicarboxamide trifluoroacetate salt]",< 500
7,"CCCN(CCC)C(=O)C1=Cc2ccc(C(=O)Nc3ccc4c(c3)CCCN4)cc2N=C(N)C1 [Compound 1.12, 2-amino-N^4,N^4-dipropyl-N^8-(1,2,3,4-tetrahydroquinolin-6-yl)-3H-benzo[b]azepine-4,8-dicarboxamide trifluoroacetate salt]",< 500
8,"CCCN(CCC)C(=O)C1=Cc2ccc(C(=O)Nc3ccc4c(c3)CCNC4)cc2N=C(N)C1 [Compound 1.13, 2-amino-N^4,N^4-dipropyl-N^8-(1,2,3,4-tetrahydroisoquinolin-6-yl)-3H-benzo[b]azepine-4,8-dicarboxamide trifluoroacetate salt]",< 500
9,"CCCN(CCC)C(=O)C1=Cc2ccc(C(=O)Nc3ccc4c(c3)CNCC4)cc2N=C(N)C1 [Compound 1.14, 2-amino-N^4,N^4-dipropyl-N^8-(1,2,3,4-tetrahydro-isoquinolin-7-yl)-3H-benzo[b]azepine-4,8-dicarboxamide trifluoroacetate salt]",< 500
10,"CCCN(CCC)C(=O)C1=Cc2ccc(C(=O)N[C@@H](C)c3ccccc3)cc2N=C(N)C1 [Compound 1.21, (S)-2-amino-N^8-(1-phenylethyl)-N^4,N^4-dipropyl-3H-benzo[b]azepine-4,8-dicarboxamide trifluoroacetate salt]",< 500
11,"CCCN(CCC)C(=O)C1=Cc2ccc(C(=O)N[C@H](C)c3ccccc3)cc2N=C(N)C1 [Compound 1.22, (R)-2-amino-N^8-(1-phenylethyl)-N^4,N^4-dipropyl-3H-benzo[b]azepine-4,8-dicarboxamide trifluoroacetate salt]",< 500
12,"CCCN(CCC)C(=O)C1=Cc2ccc(C(=O)NC3CCc4ccccc43)cc2N=C(N)C1 (stereo not shown) [Compound 1.23, 2-amino-N^8-(2,3-dihydro-1H-inden-1-yl)-N^4,N^4-dipropyl-3H-benzo[b]azepine-4,8-dicarboxamide trifluoroacetate salt]",< 500
13,"CCCN(CCC)C(=O)C1=Cc2ccc(C(=O)N3CCc4ccccc4C3)cc2N=C(N)C1 [Compound 1.24, 2-amino-N,N-dipropyl-8-(1,2,3,4-tetrahydroisoquinoline-2-carbonyl)-3H-benzo[b]azepine-4-carboxamide trifluoroacetate salt]",< 500
14,"CCCN(CCC)C(=O)C1=Cc2ccc(C(=O)Nc3ccc(C(C)=O)cc3)cc2N=C(N)C1 [Compound 1.25, N^8-(4-acetylphenyl)-2-amino-N^4,N^4-dipropyl-3H-benzo[b]azepine-4,8-dicarboxamide trifluoroacetate salt]",< 500
15,"CCCN(CCC)C(=O)C1=Cc2ccc(C(=O)NCCNC(=O)OCc3ccccc3)cc2N=C(N)C1 [Compound 1.26, benzyl (2-(2-amino-4-(dipropylcarbamoyl)-3H-benzo[b]azepine-8-carboxamido)ethyl)carbamate trifluoroacetate salt]",< 500
16,"CCCN(CCC)C(=O)C1=Cc2ccc(C(=O)Nc3cccc(C(=O)NCCNC(=O)OCc4ccccc4)c3)cc2N=C(N)C1 [Compound 1.27, benzyl (2-(3-(2-amino-4-(dipropylcarbamoyl)-3H-benzo[b]azepine-8-carboxamido)benzamido)ethyl)carbamate]",< 500
17,"CCCN(CCC)C(=O)C1=Cc2ccc(C(=O)N[C@H]3C[C@@H]3c3ccccc3)cc2N=C(N)C1 [Compound 1.28, 2-amino-N^8-((1S,2R)-2-phenylcyclopropyl)-N^4,N^4-dipropyl-3H-benzo[b]azepine-4,8-dicarboxamide trifluoroacetate salt]",< 500
18,"CCCN(CCC)C(=O)C1=Cc2ccc(C(=O)Nc3ccc4c(c3)CCN(C(=O)OCc3ccccc3)C4)cc2N=C(N)C1 [Compound 1.29, benzyl 6-(2-amino-4-(dipropylcarbamoyl)-3H-benzo[b]azepine-8-carboxamido)-3,4-dihydroisoquinoline-2(1H)-carboxylate]",< 500
19,"CCCN(CCC)C(=O)C1=Cc2ccc(C(=O)Nc3cccc(CNC(=O)CCc4ccccc4)c3)cc2N=C(N)C1 [Compound 1.31, 2-amino-N^8-(3-((3-phenylpropanamido)methyl)phenyl)-N^4,N^4-dipropyl-3H-benzo[b]azepine-4,8-dicarboxamide bis TFA salt]",< 500
20,"CCCN(CCC)C(=O)C1=Cc2ccc(C(=O)Nc3cncc(CNC(=O)NCc4ccccc4)c3)cc2N=C(N)C1 [Compound 1.32, 2-amino-N^8-(5-((3-benzylureido)methyl)pyridin-3-yl)-N^4,N^4-dipropyl-3H-benzo[b]azepine-4,8-dicarboxamide bis TFA salt]",< 500
21,"CCCN(CCC)C(=O)C1=Cc2ccc(C(=O)Nc3cncc(CNC(=O)C4CCc5ccccc5N4)c3)cc2N=C(N)C1 (stereo not shown) [Compound 1.33, 2-amino-N^4,N^4-dipropyl-N^8-(5-((1,2,3,4-tetrahydroquinoline-2-carboxamido)methyl)pyridin-yl)-3H-benzo[b]azepine-4,8-dicarboxamide]",< 500
22,"CCCN(CCC)C(=O)C1=Cc2ccc(C(=O)Nc3cncc(CNC(=O)C4Cc5ccccc5CN4)c3)cc2N=C(N)C1 (stereo not shown) [Compound 1.34, 2-amino-N^4,N^4-dipropyl-N^8-(5-((1,2,3,4-tetrahyroisoquinoline-3-carboxamido)-methyl)pyridin-3-yl)-3H-benzo[b]azepine-4,8-dicarboxamide]",< 500
23,"CCCN(CCC)C(=O)C1=Cc2ccc(C(=O)Nc3cncc(CNC(=O)[C@@H](N)Cc4ccccc4)c3)cc2N=C(N)C1 [Compound 1.35, (S)-2-amino-N^8-(5-((2-amino-3-phenylpropanamido)methyl)pyridin-3-yl)-N^4,N^4-dipropyl-3H-benzo[b]azepine-4,8-dicarboxamide]",< 500
24,"CCCN(CCC)C(=O)C1=Cc2ccc(C(=O)Nc3cncc(CNC(=O)[C@H](N)Cc4ccccc4)c3)cc2N=C(N)C1 [Compound 1.36, (R)-2-amino-N^8-(5-((2-amino-3-phenyl-propanamido)-methyl)pyridine-3-yl)-N^4,N^4-dipropyl-3H-benzo[b]azepine-4,8-dicarboxamide]",< 500
25,"CCCN(CCC)C(=O)C1=Cc2ccc(C(=O)Nc3cncc(CNC(=O)Oc4ccccc4)c3)cc2N=C(N)C1 [Compound 1.37, Phenyl ((5-(2-amino-4-(dipropylcarbamoyl)-3H-benzo[b]azepine-8-carboxamido)pyridin-3-yl)methyl)carbamate]",< 500
26,"CCCN(CCC)C(=O)C1=Cc2ccc(C(=O)Nc3cncc(CNC(=O)CC(N)c4ccccc4)c3)cc2N=C(N)C1 (stereo not shown) [Compound 1.38, 2-amino-N^8-(5-((3-amino-3-phenyl-propanamido)methyl)-pyridin-3-yl)-N^4,N^4-dipropyl-3H-benzo[b]azepine-4,8-dicarboxamide]",< 500
27,"CCCN(CCC)C(=O)C1=Cc2ccc(C(=O)Nc3cnc4c(c3)C(N)CCC4)cc2N=C(N)C1 (stereo not shown) [Compound 1.39, 2-amino-N^8-(5-amino-5,6,7,8-tetrahydro-quinolin-3-yl)-N^4,N^4-dipropyl-3H-benzo-[b]azepine-4,8-dicarbox-amide]",< 500
28,"CCCN(CCC)C(=O)C1=Cc2ccc(C(=O)NCC3OB(O)c4ccccc43)cc2N=C(N)C1 (stereo not shown) [Compound 1.47, 2-amino-N^8-((1-hydroxy-1,3-dihydro-benzo[c][1,2]oxaborol-3-yl)methyl)-N4,N4-dipropyl-3H-benzo[b]azepine-4,8-dicarboxamide]",500 to 1000
